Experimental data taken from US10058540B2, “2-amino-5,5-difluoro-6-(fluoromethyl)-6-phenyl-3,4,5,6-tetrahydropyridines as BACE1 inhibitors” (H. Lundbeck A/S, priority 2014, dated 2018).

What was measured:
[1] = test system: Aβ40; assay: Assessment of Aβ peptide levels in rat brain and plasma following BACE1 inhibition (Aβ40 ELISA); format: in vivo; details: 3 hours post dose, vs vehicle
Procedure: Assessment of Aβ Peptide Levels in Rat Brain and Plasma Following BACE1 Inhibition. Animals.
Young adult Male Sprague Dawley rats of approximately 250 g weight were purchased from Charles River and received 0-30 mg/kg of vehicle (10% HP betaCD+1M MeSO4, pH 2.5) or test compounds (dissolved in vehicle) only by oral gavage (p.o). The compounds are dosed at a volume of […]. Cohorts of 5-10 animals were established for each treatment condition.
At T=180 minutes after initial dosing the animals were stunned and decapitated with a guillotine. Trunk-blood was sampled in EDTA coated tubes after decapitation of the animal. The blood was centrifuged at 2200 G at 4° C. for 15 minutes and the plasma was collected and frozen at −80° C. The blood was aliquoted for Aβ ELISA and DMPK analysis. Immediately following sacrifice, the brain was extracted and split into 2 halves. The right hemibrains were snap frozen on dry ice and stored at −80° C. The left half was dissected; with the front forebrain taken for Aβ ELISA and the remainder used for DMPK analysis. These samples were also snap frozen on dry ice and stored at −80° C. until use for analysis.
The cortex samples were thawed slightly on wet ice before they were homogenized with a small volume dispersing instrument (T10 basic ULTRA-TURRAX®) which was set at speed 5 for approximately 5-7 sec. The tissue was processed in a 10 times volume of the weight, for example 100 mg of tissue was homogenized in 1000 μL of Homogenization buffer. Homogenization buffer: 50 ml Milli Q water+[…]+0.2% Diethylamin (DEA)+1 tablet of Complete Protease inhibitor cocktail+1 nM 4-(2-aminoethyl)benzenesulfonyl fluoride hydrochloride irreversible serine protease inhibitor (AEBSF).
After homogenization 450 μL aliquots of the samples are collected into a 1.5 ml Eppendorf tube and placed on wet ice, 0.5% NP-40 (50 ul) was added to all samples and then they were incubated on ice for 30 min. After which all samples were sonicated using an Ultrasonic homogenizer with 20 kHz homogeneous sound (SONOPLUS HD2070, Bandelin Electronic) 10 pulse set at 12-13% power to extract all the Aβ species. The samples were then centrifuged (Ole Dich 157 MPRF Micro centrifuge) at 20000 G for 20 minutes at 4° C. After centrifugation 285 μL of the supernatant was pipetted into 600 μL microtubes tubes and neutralized with 15 μL of 1M Tris-HCL buffer.
WAKO 294-62501 Human/Rat Abeta amyloid (40) kit was used for all ELISA analyses. 30 μL plasma samples or 30 μL of the cortex supernatants generated as described above were placed in 600 μL microtubes tubes on wet ice. To this 30 μL of 8M Urea (AppliChem A1049, 9025) are added to generate a 2-fold dilution. Both plasma and cortex supernatants are incubated on ice for 30 min. Standard rows were prepared from the standard peptide stock provided in the kit and standard diluent containing 1.6M Urea (200 μL 8M Urea+800 μL of standard diluent) and 0.8M Urea (400 μL 8M Urea+3600 μL Standard diluent). A serial 2-fold dilution of Aβ40 from 100 pmol/ml to 0 pmol/L was prepared for the assay.
After incubation with urea, all samples were further diluted by addition of 5 times standard diluent from the Kit. This was done by adding 240 μL Standard Diluent to 60 μL sample/urea mixture, which was then mixed well. 100 μL of each diluted sample was pipetted into designated wells of the ELISA plate in duplicates. The plate was then covered and incubated overnight at 4° C. The following day, the ELISA kit was brought to room temperature before use. The incubated plate was washed 5 times with the 20× washing solution diluted in Milli Q water. 100 μL HRP-conjugate was applied to each well, and the plate was covered and incubates at 4° C. for 1 hr. The wash was repeated again for 5 times. 100 μL 3,3′,5,5′-Tetramethylbenzidine (TMB) solution was applied to each well and the plate was covered and incubated in the dark at room temperature for 30 minutes. […]

[2] = test system: P-gp (MDR1); assay: MDCK-MDR1 assay (permeability / Pgp efflux); format: in vitro ADME; details: dog, Papp BA/Papp AB, Pgp substrate when ≥2
Procedure: The permeability of the test compounds was assessed in MDCK-MDR1 cells that were cultured to confluency (4-6 days) in a 96 transwell plate. Test compounds were diluted with the transport buffer (HBSS+1% BSA) to a concentration of 0.5 μM and applied to the apical or basolateral side of the cell monolayer. Permeation of the test compounds from A to B direction or B to A direction was determined in triplicate over a 60-minute incubation time at 37° C. and 5% CO2 with a relative humidity of 95%. Test compounds were quantified by LC-MS/MS analysis based on the peaks area ratios of analyte/IS in both the receiver and donor wells of the transwell plate.
The apparent permeability coefficient Papp (cm/s) was calculated using the equation: Papp=(dCr/dt)×Vr/(A×C0) Where dCr/dt is the cumulative concentration of compound in the receiver chamber as a function of time (μM/s); Vr is the solution volume in the receiver chamber (0.05 mL on the apical side; 0.25 mL on the basolateral side); A is the surface area for the transport, i.e. 0.0804 cm^2 for the area of the monolayer; C0 is the initial concentration in the donor chamber (μM).
Compounds are classified Pgp substrates when efflux ratio (Papp BA/Papp AB) is ≥2.

efflux ratio at 60 min, 0.5 μM [2]: 0.77
SMILES: COc1cnc(C(=O)Nc2cc(F)c(F)c([C@@]3(CF)N=C(N)CCC3(F)F)c2)cn1 [Compound 11, (S)-N-(3-(6-amino-3,3-difluoro-2-(fluoromethyl)-2,3,4,5-tetrahydropyridin-2-yl)-4,5-difluorophenyl)-5-methoxypyrazine-2-carboxamide]
Aβ40 reduction ([1]; rat brain, 10 mg/kg p.o.): 43%
Aβ40 reduction ([1]; rat brain, 30 mg/kg p.o.): 50%
Aβ40 reduction ([1]; rat plasma, 10 mg/kg p.o.): 31%
Aβ40 reduction ([1]; rat plasma, 30 mg/kg p.o.): 37%
